Measured values published in patent US10308644B2, “Heterocyclic compounds as immunomodulators” (Incyte Corporation, priority 2016, dated 2019).

Target: PD-1/PD-L1 (Homo sapiens (Human), UniProt Q9NZQ7)
Test: PD-1/PD-L1 Homogeneous Time-Resolved Fluorescence (HTRF) Binding Assay
Conditions: recombinant human PD-1 (3 nM) and PD-L1 (10 nM), 25° C., PBS pH 7.4
Experimental: Example A. PD-1/PD-L1 Homogeneous Time-Resolved Fluorescence (HTRF) Binding Assay
The assays were conducted in a standard black 384-well polystyrene plate with a final volume of 20 μL. Inhibitors were first serially diluted in DMSO and then added to the plate wells before the addition of other reaction components. The final concentration of DMSO in the assay was 1%. The assays were carried out at 25° C. in the PBS buffer (pH 7.4) with 0.05% Tween-20 and 0.1% BSA. Recombinant human PD-L1 protein (19-238) with a His-tag at the C-terminus was purchased from AcroBiosystems (PD1-H5229). Recombinant human PD-1 protein (25-167) with Fc tag at the C-terminus was also purchased from AcroBiosystems (PD1-H5257). PD-L1 and PD-1 proteins were diluted in the assay buffer and 10 μL was added to the plate well. Plates were centrifuged and proteins were preincubated with inhibitors for 40 minutes. The incubation was followed by the addition of 10 μL of HTRF detection buffer supplemented with Europium cryptate-labeled anti-human IgG (PerkinElmer-AD0212) specific for Fc and anti-His antibody conjugated to SureLight®-Allophycocyanin (APC, PerkinElmer-AD0059H). After centrifugation, the plate was incubated at 25° C. for 60 min. before reading on a PHERAstar FS plate reader (665 nm/620 nm ratio). Final concentrations in the assay were—3 nM PD1, 10 nM PD-L1, 1 nM europium anti-human IgG and 20 nM anti-His-Allophycocyanin. IC50 determination was performed by fitting the curve of percent control activity versus the log of the inhibitor concentration using the GraphPad Prism 5.0 software.

Chain of PD-1/PD-L1 (Q9NZQ7 19-238): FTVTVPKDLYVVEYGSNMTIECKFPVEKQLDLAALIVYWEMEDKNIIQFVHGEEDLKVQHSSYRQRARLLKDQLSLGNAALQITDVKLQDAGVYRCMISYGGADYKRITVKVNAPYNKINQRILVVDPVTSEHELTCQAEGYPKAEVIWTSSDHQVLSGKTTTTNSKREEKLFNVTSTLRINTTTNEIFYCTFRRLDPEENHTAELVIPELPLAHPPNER

| Structure (SMILES) | IC50 [µM] |
| --- | --- |
| Cc1c(Nc2nccc3cc(CN4CC[C@@H](O)C4)cnc23)cccc1-c1cccc(-c2nc3cc(CN4CC[C@@H](C(=O)O)C4)cc(C#N)c3o2)c1C [Example 24, (R)-1-((7-cyano-2-(3′-(3-(((R)-3-hydroxypyrrolidin-1-yl)methyl)-1,7-naphthyridin-8-ylamino)-2,2′-dimethylbiphenyl-3-yl)benzo[d]oxazol-5-yl)methyl)pyrrolidine-3-carboxylic acid] | ≤ 0.01 |
| Cc1c(Nc2nccc3cc(CN4CC[C@H](O)C4)cnc23)cccc1-c1cccc(-c2nc3cc(CN4CC[C@H](C(=O)O)C4)cc(C#N)c3o2)c1C [Example 25, (S)-1-((7-cyano-2-(3′-(3-(((S)-3-hydroxypyrrolidin-1-yl)methyl)-1,7-naphthyridin-8-ylamino)-2,2′-dimethylbiphenyl-3-yl)benzo[d]oxazol-5-yl)methyl)pyrrolidine-3-carboxylic acid] | ≤ 0.01 |
| Cc1c(Nc2nccc3cc(CN4CC[C@H](O)C4)cnc23)cccc1-c1cccc(-c2nc3cc(CN4CC[C@@H](C(=O)O)C4)cc(C#N)c3o2)c1C [Example 26, (R)-1-((7-cyano-2-(3′-(3-(((S)-3-hydroxypyrrolidin-1-yl)methyl)-1,7-naphthyridin-8-ylamino)-2,2′-dimethylbiphenyl-3-yl)benzo[d]oxazol-5-yl)methyl)pyrrolidine-3-carboxylic acid] | ≤ 0.01 |
| Cc1c(Nc2nccc3cc(CN4CC[C@@H](O)C4)cnc23)cccc1-c1cccc(-c2nc3cc(CN4CC[C@H](C(=O)O)C4)cc(C#N)c3o2)c1C [Example 28, (S)-1-((7-cyano-2-(3′-(3-(((R)-3-hydroxypyrrolidin-1-yl)methyl)-1,7-naphthyridin-8-ylamino)-2,2′-dimethylbiphenyl-3-yl)benzo[d]oxazol-5-yl)methyl)pyrrolidine-3-carboxylic acid] | ≤ 0.01 |

Now from value to compound:

| IC50 [µM] | Structure (SMILES) |
| --- | --- |
| ≤ 0.01 | Cc1c(Nc2nccc3cc(CN4CC[C@H](O)C4)cnc23)cccc1-c1cccc(-c2nc3cc(CNCCC(=O)O)cc(Cl)c3o2)c1C [Example 20, (S)-3-((7-chloro-2-(3′-(3-((3-hydroxypyrrolidin-1-yl)methyl)-1,7-naphthyridin-8-ylamino)-2,2′-dimethylbiphenyl-3-yl)benzo[d]oxazol-5-yl)methylamino)propanoic acid] |
| ≤ 0.01 | Cc1c(Nc2nccc3cc(CN4CC[C@H](O)C4)cnc23)cccc1-c1cccc(-c2nc3cc(CN(C)CCC(=O)O)cc(Cl)c3o2)c1C [Example 21, (S)-3-(((7-chloro-2-(3′-(3-((3-hydroxypyrrolidin-1-yl)methyl)-1,7-naphthyridin-8-ylamino)-2,2′-dimethylbiphenyl-3-yl)benzo[d]oxazol-5-yl)methyl)(methyl)amino)propanoic acid] |
| ≤ 0.01 | Cc1c(Nc2nccc3cc(CN4CC[C@H](O)C4)cnc23)cccc1-c1cccc(-c2nc3cc(CN4CCC(C(=O)O)CC4)cc(Cl)c3o2)c1C [Example 22, (S)-1-((7-chloro-2-(3′-(3-((3-hydroxypyrrolidin-1-yl)methyl)-1,7-naphthyridin-8-ylamino)-2,2′-dimethylbiphenyl-3-yl)benzo[d]oxazol-5-yl)methyl)piperidine-4-carboxylic acid] |
| ≤ 0.01 | Cc1c(Nc2nccc3cc(CN4CC[C@H](O)C4)cnc23)cccc1-c1cccc(-c2nc3cc(CN4CC(C(=O)O)C4)cc(Cl)c3o2)c1C [Example 23, (S)-1-((7-chloro-2-(3′-(3-((3-hydroxypyrrolidin-1-yl)methyl)-1,7-naphthyridin-8-ylamino)-2,2′-dimethylbiphenyl-3-yl)benzo[d]oxazol-5-yl)methyl)azetidine-3-carboxylic acid] |
| ≤ 0.01 | Cc1c(Nc2nccc3cc(CN4CC[C@H](O)C4)cnc23)cccc1-c1cccc(-c2nc3cc(CN4CCCC[C@H]4C(=O)O)cc(C#N)c3o2)c1C [Example 27, (S)-1-((7-cyano-2-(3′-(3-(((S)-3-hydroxypyrrolidin-1-yl)methyl)-1,7-naphthyridin-8-ylamino)-2,2′-dimethylbiphenyl-3-yl)benzo[d]oxazol-5-yl)methyl)piperidine-2-carboxylic acid] |
